Source: ChEMBL document CHEMBL1135267 (Bioorg Med Chem Lett, 2002)

biological target: T1, Aromatase (Homo sapiens, UniProt P11511)
T1 sequence (P11511 whole entry): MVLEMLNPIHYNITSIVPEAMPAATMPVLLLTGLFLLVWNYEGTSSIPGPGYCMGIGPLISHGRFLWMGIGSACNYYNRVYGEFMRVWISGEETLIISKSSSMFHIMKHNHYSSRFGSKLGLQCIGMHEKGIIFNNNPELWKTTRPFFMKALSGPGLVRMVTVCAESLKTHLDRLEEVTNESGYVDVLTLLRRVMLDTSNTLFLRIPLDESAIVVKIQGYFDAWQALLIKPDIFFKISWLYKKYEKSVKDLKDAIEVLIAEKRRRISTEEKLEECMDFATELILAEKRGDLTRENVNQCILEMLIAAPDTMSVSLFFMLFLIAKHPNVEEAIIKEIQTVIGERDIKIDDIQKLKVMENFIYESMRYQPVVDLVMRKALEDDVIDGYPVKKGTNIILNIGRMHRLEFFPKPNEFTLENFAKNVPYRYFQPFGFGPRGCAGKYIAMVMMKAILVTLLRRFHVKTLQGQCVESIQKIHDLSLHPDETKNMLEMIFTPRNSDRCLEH

Row | Compound | IC50 [nM]
1 | O=C1/C(=C/c2ccncc2)C(c2ccccc2)Oc2ccccc21 (centres undefined) | 800
2 | COc1ccc2c(c1)OC(c1ccccc1)/C(=C\c1ccncc1)C2=O (centres undefined) | 620
3 | O=C1/C(=C\c2ccncc2)C(c2ccccc2)Oc2ccccc21 (mixture of isomers) | 3300
4 | COc1ccc2c(c1)OC(c1ccccc1)/C(=C/c1ccncc1)C2=O (mixture of isomers) | 1600
